Several values for one entry are separate records, joined by “and”; a condition that tells them apart may be missing. Equal values may be shown once. Numbered stars: 1 amine (or outer) side, 2 acyl side, 3 side chain; on linkers, the order of the positions; unused ones are H or OH. Peptide text beside a SMILES is read from it. * marks the point of attachment. Suc = O=C(CCC(=O)[*:2])[*:1]; Pyrrolidide = C1CCN(*)C1; NHiPr = CC(C)N*
Biological target: T1, HSV-1 ribonucleotide reductase (Human herpesvirus 1, UniProt P08543)
T1 construct: HSV-1 ribonucleotide reductase (partially purified) was obtained from quiescent BHK-21/C13 cells infected with strain F HSV-1 virus; made in house; host or cells: quiescent BHK-21/C13 cells infected with HSV-1 strain F (10 pfu/cell); partially purified
T1 sequence (P08543 whole entry): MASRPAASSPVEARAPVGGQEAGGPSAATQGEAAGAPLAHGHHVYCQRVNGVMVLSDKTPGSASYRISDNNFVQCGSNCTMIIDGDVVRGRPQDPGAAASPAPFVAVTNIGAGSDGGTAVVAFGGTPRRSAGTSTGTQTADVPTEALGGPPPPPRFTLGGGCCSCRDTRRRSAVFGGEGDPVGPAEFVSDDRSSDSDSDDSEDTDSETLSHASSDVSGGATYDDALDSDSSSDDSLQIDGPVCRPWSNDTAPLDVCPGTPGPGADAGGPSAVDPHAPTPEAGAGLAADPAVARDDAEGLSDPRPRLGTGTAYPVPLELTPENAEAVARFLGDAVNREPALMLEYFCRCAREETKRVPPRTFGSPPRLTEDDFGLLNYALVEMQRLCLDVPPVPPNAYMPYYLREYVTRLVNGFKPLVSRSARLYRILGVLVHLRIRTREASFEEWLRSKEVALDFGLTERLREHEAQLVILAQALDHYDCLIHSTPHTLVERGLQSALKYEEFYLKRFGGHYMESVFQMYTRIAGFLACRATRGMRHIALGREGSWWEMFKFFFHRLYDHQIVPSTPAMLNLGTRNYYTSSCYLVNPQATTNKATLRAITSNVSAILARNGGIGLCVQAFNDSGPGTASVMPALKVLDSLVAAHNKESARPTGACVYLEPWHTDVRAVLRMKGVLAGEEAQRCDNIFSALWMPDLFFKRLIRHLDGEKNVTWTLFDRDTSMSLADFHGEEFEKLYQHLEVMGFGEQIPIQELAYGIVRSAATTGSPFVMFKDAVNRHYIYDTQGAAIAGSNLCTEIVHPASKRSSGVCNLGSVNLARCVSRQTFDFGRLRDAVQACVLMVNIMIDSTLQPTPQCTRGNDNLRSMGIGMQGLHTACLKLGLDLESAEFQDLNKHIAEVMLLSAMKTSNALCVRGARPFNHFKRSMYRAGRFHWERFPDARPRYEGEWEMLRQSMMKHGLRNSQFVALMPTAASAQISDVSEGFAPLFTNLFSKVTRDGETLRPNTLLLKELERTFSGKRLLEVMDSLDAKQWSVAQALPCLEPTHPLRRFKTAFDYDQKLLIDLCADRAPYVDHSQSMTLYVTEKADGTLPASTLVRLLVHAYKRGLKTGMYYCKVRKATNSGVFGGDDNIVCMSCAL
Assay: biochemical
Details: IC50, concentration producing 50% of the maximal inhibition of enzyme activity; partially purified enzyme; mean of four assays
Source text: HSV-1 ribonucleotide reductase (partially purified) was obtained from quiescent BHK-21/C13 cells infected with strain F HSV-1 virus at 10 plaque forming units/cell as described by E. A. Cohen et at., J. Gem Virol., 66, 733 (1985).
By following the procedure described by P. Gaudreau et at., J. Biol, Chem., 262, 12413 (1987), the assay results listed in the following table were obtained. The assay result for each exemplified compound of formula 1 is expressed as the concentration of the compound producing 50% of the maximal inhibition (IC50) of enzyme activity. The number of units of the enzyme preparation used in each assay was constant, based on the specific activity of the enzyme preparation. The results are relative to the activity obtained in control experiments without the test compound and represent the mean of four assays that varied less than 10% with each other.

Structure (SMILES) | IC50
CCC(CC)NC(=O)CCC(=O)N[C@@H](CC(=O)OCCCCCl)C(=O)N[C@@H](CC(=O)O)C(=O)N[C@@H](CC(C)C)C(=O)O [Et2 CHNHCOCH2 CH2 CO-Asp(4-chloro-butyloxy)-Asp-Leu-OH] | 20 µM
CCC(CC)NC(=O)CCC(=O)N[C@@H](CC(=O)N1CCC(C)CC(C)(C)C1)C(=O)N[C@@H](CC(=O)O)C(=O)N[C@@H](CC(C)C)C(=O)O (stereo partly drawn) [Et2 CHNHCOCH2 CH2 CO-Asp(3,3,5-trimethylhexahydroazepino)-Asp-Leu-OH] | 12 µM
CCC(CC)NC(=O)C1CCCCC1C(=O)N[C@@H](CC(=O)N1CCCC1)C(=O)N[C@@H](CC(=O)O)C(=O)N[C@@H](CC(C)C)C(=O)O (stereo partly drawn) [Et2 CHNHCO-(cis-1,2-cyclohexanediyl)-CO-Asp(pyrrolidino)-Asp-Leu-OH] | 3.7 µM and 2.21 µM
CCCCCCCC(=O)C[C@H](NC(=O)CCC(=O)NC(CC)CC)C(=O)N[C@@H](CC(=O)O)C(=O)N[C@@H](CC(C)C)C(=O)O [Et2 CHNHCOCH2 CH2 CO-NHCH-(2-oxononyl)-CO-Asp-Leu-OH] | 9 µM
CCC(CC)NC(=O)c1ccccc1C(=O)N[C@@H](CC(=O)N1CCCC1)C(=O)N[C@@H](CC(=O)O)C(=O)N[C@@H](CC(C)C)C(=O)O [Et2 CHNHCO-(1,2-phenylene)-CO-Asp(pyrrolidino)-Asp-Leu-OH] | 6.5 µM
CCC(CC)NC(=O)CCC(=O)N(C)[C@@H](CC(=O)N1CCCC1)C(=O)N[C@@H](CC(=O)O)C(=O)N[C@@H](CC(C)C)C(=O)O [Et2 CHNHCOCH2 CH2 CO-(N-Me)-Asp(pyrrolidino)-Asp-Leu-OH] | 2 µM
CCC(CC)NC(=O)CCC(=O)N[C@@H](CC(=O)N1CCC1)C(=O)N[C@@H](CC(=O)O)C(=O)N[C@@H](CC(C)C)C(=O)O [Et2 CHNHCOCH2 CH2 CO-Asp(azetidino)-Asp-Leu-OH] | 9.1 µM
CCC(CC)NC(=O)CCC(=O)N[C@@H](CC(=O)N(C)CCOC(C)=O)C(=O)N[C@@H](CC(=O)O)C(=O)N[C@@H](CC(C)C)C(=O)O [Et2 CHNHCOCH2 CH 2 CO-Asp[N(CH3)CH2-CH2 OCOCH3 ]-Asp-Leu-OH] | 9.9 µM
CCC(CC)NC(=O)CCC(=O)N[C@@H](CC(=O)N1CCCC1)C(=O)N[C@H](C(=O)N[C@H](CO)CC(C)C)C1(C(=O)O)CCC1 [Et2 CHNHCOCH2 CH2,CO-Asp(pyrrolidino)-Asp(cyBu)-(L-leucinol)] | 5 µM
CCC(CC)NC(=O)CCC(=O)N[C@@H](CC(=O)N1CCCC1)C(=O)N[C@H](C(=O)NCCC(C)(C)C)C(C)(C)C(=O)O [Et2 CHNHCOCH2 CH2 CO-Asp(pyrrolidino)-Asp(diMe)-NH[CH2 CH2 C(CH3)3 ]] | 75 µM
CCC(CC)NC(=O)/C=C\C(=O)N[C@@H](CC(=O)N1CCCC1)C(=O)N[C@@H](CC(=O)O)C(=O)N[C@@H](CC(C)C)C(=O)O [Et2 CHNHCO-(cis-CH=CH)-CO-Asp(pyrrolidino)-Asp-Leu-OH] | 21 µM
CCCCCC[C@H](C)OC(=O)C[C@H](NC(=O)CCC(=O)NC(CC)CC)C(=O)N[C@H](C(=O)N[C@@H](CC(C)C)C(=O)O)C1(C(=O)O)CCC1 [Et2 CHNHCOCH2 CH2 CO-Asp[1(S)-methylheptyloxy]-Asp(cyBu)-Leu-OH] | 4.4 µM
CCC(CC)NC(=O)CCC(=O)N[C@@H](CC(=O)C1CCCC1)C(=O)N[C@@H](CC(=O)O)C(=O)N[C@@H](CC(C)C)C(=O)O [Et2 CHNHCOCH2 CH2 CO-NHCH-(2-cyclopentyl-2-oxoethyl)-CO-Asp-Leu-OH] | 3.4 µM
CC(C)C[C@H](NC(=O)[C@H](CC(=O)O)NC(=O)[C@H](CC(=O)N1CCCC1)NC(=O)CCC(=O)NC(C)C)C(=O)O [Me2 CHNHCOCH2 CH2 CO-Asp(pyrrolidino)-Asp-Leu-OH] ({NHiPr-Suc}-Asp(Pyrrolidide)-Asp-Leu-OH) | 18 µM
CC(C)C[C@H](NC(=O)[C@H](CC(=O)O)NC(=O)[C@H](CC(=O)N1CCCC1)NC(=O)CCC(=O)NC1CCCCC1)C(=O)O [Cyclohexylamino-COCH2 CH2 CO-Asp(pyrrolidino)-Asp-Leu-OH] | 22 µM
CC(C)CNC(=O)CCC(=O)N[C@@H](CC(=O)N1CCCC1)C(=O)N[C@@H](CC(=O)O)C(=O)N[C@@H](CC(C)C)C(=O)O [Me2 CHCH2 NHCOCH2 CH2 CO-Asp(pyrrolidino)-Asp-Leu-OH] | 75 µM
CCC(CC)NC(=O)C[C@H](C(=O)N[C@@H](CC(=O)N1CCCC1)C(=O)N[C@H](C(=O)N[C@@H](CC(C)(C)C)C(=O)O)C1(C(=O)O)CCCC1)C(C)(C)C [Title Compound of Example 11, Et2 CHNH--COCH2 CH[(S)-C(CH3)3]CO--Asp(pyrrolidino)--Asp(cyPn)-γMeLeu--OH] | 0.17 µM
CCC(CC)NC(=O)CCC(=O)N[C@@H](CC(=O)OC1CCCCC1)C(=O)N[C@@H](CC(=O)O)C(=O)N[C@@H](CC(C)C)C(=O)O [Et2 CHNHCOCH2 CH2 CO-Asp(cyclohexyloxy)-Asp-Leu-OH] | 75 µM
CCC(CC)NC(=O)CCC(=O)N[C@@H](CC(=O)N(C)CCO)C(=O)N[C@@H](CC(=O)O)C(=O)N[C@@H](CC(C)C)C(=O)O [Et2 CHNHCOCH2 CH2 CO-Asp[N(CH3)CH2-CH2 OH]-Asp-Leu-OH] | 11 µM
CCC(CC)NC(=O)CCC(=O)N[C@@H](CC(=O)N1CCCC1)C(=O)N[C@@H](CC(=O)O)C(=O)N[C@@H](CC(C)C)C(=O)O [Title Compound of Example 10, Et2 CHNHCOCH2 CH2 CO--Asp(pyrrolidiono)--Asp-Leu--OH] | 2.9 µM
CCCCCCCCN(C)C(=O)C[C@H](NC(=O)CCC(=O)NC(CC)CC)C(=O)N[C@H](C(=O)N[C@@H](CC(C)C)C(=O)O)C1(C(=O)O)CCCC1 [Et2 CHNHCOCH2 CH2 CO-Asp(N-Me-N-octyl)-Asp(cyPn)-Leu-OH] | 0.73 µM

Source: patent publication US5484771A, “Antiherpes peptide derivatives having a 1,4-dioxo-C, N-terminus” (priority 1994, dated 1996)
